Results: US9409952B2, “Peptide-compound cyclization method” (Chugai Seiyaku Kabushiki Kaisha, priority 2011, dated 2016)
Where two headings read alike, the source gives them in different places. Starred links: 1 amine or outer side, 2 acyl side, 3 side chain; linkers in the order of their positions; H or OH if unused. Positions of bridges follow the written chain, without caps; N, C: chain ends. Non-standard residues stand in square brackets, D forms with d. Residues, ends and D or L forms follow the SMILES beside them. *: point of attachment. NMePhe(3-Cl) = CN[C@@H](Cc1cccc(Cl)c1)C(=O)O; NMeF = CN[C@@H](Cc1ccccc1)C(=O)O; NMeβAla = CN(CCC(=O)[*:2])[*:1]; NMeL = CN[C@@H](CC(C)C)C(=O)O; NMeA = CN[C@@H](C)C(=O)O; Piperidide = C1CCN(*)CC1; dNMeA = CN[C@H](C)C(=O)O; Sar = CNCC(=O)O

Legend:
[1] = PAMPA (parallel artificial membrane permeability assay); format: in vitro ADME; conditions: PAMPA
Procedure, shortened: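 Artificial membrane was 10% (w/v) egg lecithin plus 0.5% (w/v) cholesterol in dodecane on a PVDF filter. A 10 mM DMSO stock was added at 0.5% (v/v) to donor buffer (50 mM MOPSO, pH 6.5, 5.0% glycocholic acid). After 18 h at 37 °C, LC/MS or LC/UV gave donor and acceptor levels for Pe.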

[2] = Metabolic stability in human hepatic microsome; format: in vitro ADME; conditions: microsomes
[3] = membrane permeation rate (Pe), 50 mM MOPSO buffer pH 6.5 with 5.0% glycocholic acid, 37° C., 18 hours, read-out: iPAMPA Pe
[4] = pH 7.4, human hepatic microsome, NADPH(+), read-out: CL NADPH(+)

Structure (SMILES) | Papp at 18 hours, 50 µM ([1]; pH 6.5) [×10⁻⁶ cm/s] | microsomal CLint at 1 uM ([2]; human, pH 7.4, CL NADPH(+)) [µL/min/mg] | Papp at 18 hours, 50 µM [1, 3] [×10⁻⁶ cm/s] | microsomal CLint at 1 uM [2, 4] [µL/min/mg]
CC[C@H](C)[C@H](NC(=O)[C@H](CC(C)C)N(C)C(=O)[C@H](CC(C)C)N(C)C(=O)[C@H](Cc1cccc(Cl)c1)N(C)C(=O)[C@@H]1CC(=O)N(C)[C@@H](C)C(=O)N[C@@H](C(C)C)C(=O)N(C)[C@@H](Cc2ccccc2)C(=O)N[C@@H]([C@@H](C)O)C(=O)N2CCC[C@H]2C(=O)N(C)[C@@H](Cc2ccccc2)C(=O)N[C@@H](CC(C)C)C(=O)N1)C(=O)N1CCCCC1 [DP-927] ([NMeA]V[NMeF]TP[NMeF]LD[NMePhe(3-Cl)][NMeL][NMeL]I-Piperidide; lactam N-8) | 0.1 | 5 |  | 
CC[C@H](C)[C@H](NC(=O)[C@H](Cc1ccccc1)N(C)C(=O)[C@H](C)N(C)C(=O)[C@@H](NC(=O)[C@@H]1CC(=O)N[C@@H](C)C(=O)N[C@@H]([C@@H](C)O)C(=O)N(C)[C@@H](CC(C)C)C(=O)N[C@@H](C(C)C)C(=O)N(C)[C@@H](Cc2cccc(Cl)c2)C(=O)N(C)[C@@H](CC(C)C)C(=O)N[C@@H](Cc2ccccc2)C(=O)N1)[C@@H](C)CC)C(=O)N1CCCCC1 [DP-928] (AT[NMeL]V[NMePhe(3-Cl)][NMeL]FDI[NMeA][NMeF]I-Piperidide; lactam N-8) |  |  | 0.1 | 60
CC[C@H](C)[C@H](NC(=O)[C@H](CC(C)C)N(C)C(=O)[C@@H]1CCCN1C(=O)[C@H](Cc1ccccc1)N(C)C(=O)[C@@H]1CC(=O)N[C@H](C(C)C)C(=O)N[C@@H](C)C(=O)N(C)[C@@H](Cc2ccccc2)C(=O)N(C)[C@@H](C)C(=O)N[C@@H](Cc2ccccc2)C(=O)N(C)[C@@H](CC(C)C)C(=O)N[C@@H]([C@@H](C)O)C(=O)N1)C(=O)N1CCCCC1 [DP-929] ([dV]A[NMeF][NMeA]F[NMeL]TD[NMeF]P[NMeL]I-Piperidide; lactam N-8) |  |  | 12 | 49
CC[C@H](C)[C@H](NC(=O)[C@@H](NC(=O)[C@H](Cc1ccccc1)NC(=O)[C@H](CC(C)C)N(C)C(=O)[C@@H]1CC(=O)N(C)CCC(=O)N(C)[C@@H](C)C(=O)N[C@@H](CC(C)C)C(=O)N[C@@H]([C@@H](C)O)C(=O)N(C)[C@@H](Cc2ccccc2)C(=O)N(C)[C@@H](CC(C)C)C(=O)N(C)[C@@H](Cc2ccccc2)C(=O)N1)C(C)C)C(=O)N1CCCCC1 [DP-930] ([NMeβAla][NMeA]LT[NMeF][NMeL][NMeF]D[NMeL]FVI-Piperidide; lactam N-8) |  |  | 0.46 | 168
CC[C@H](C)[C@H](NC(=O)[C@H](C)N(C)C(=O)[C@H](CC(C)C)N(C)C(=O)[C@H](CC(C)C)NC(=O)[C@@H]1CC(=O)N[C@@H](Cc2ccccc2)C(=O)N[C@@H]([C@@H](C)CC)C(=O)N(C)[C@@H](CC(C)C)C(=O)N(C)[C@@H](CC(C)C)C(=O)N[C@@H](Cc2ccccc2)C(=O)N[C@@H]([C@@H](C)O)C(=O)N(C)[C@@H](Cc2cccc(Cl)c2)C(=O)N1)C(=O)N1CCCCC1 [DP-931] (FI[NMeL][NMeL]FT[NMePhe(3-Cl)]DL[NMeL][NMeA]I-Piperidide; lactam N-8) |  |  | 0.1 | 12
CC[C@H](C)[C@@H]1NC(=O)[C@H](Cc2ccccc2)N(C)C(=O)[C@H](CC(C)C)N(C)C(=O)[C@H](Cc2ccccc2)NC(=O)[C@H](C)N(C)C(=O)[C@H]([C@@H](C)O)NC(=O)[C@H](C(C)C)NC(=O)[C@@H](C(C)C)NC(=O)C[C@@H](C(=O)N(C)[C@@H](Cc2ccccc2)C(=O)N[C@H](C(=O)N(C)[C@@H](C)C(=O)N(C)[C@@H](CC(C)C)C(=O)N[C@H](C(=O)N2CCCCC2)[C@@H](C)CC)C(C)C)NC1=O [DP-935] ([dV]VT[NMeA]F[NMeL][NMeF]ID[NMeF]V[NMeA][NMeL]I-Piperidide; lactam N-9) |  |  | 0.1 | 29
CC[C@H](C)[C@H](NC(=O)[C@H](CC(C)C)N(C)C(=O)[C@@H]1CCCN1C(=O)[C@@H](NC(=O)[C@H](C)N(C)C(=O)[C@@H]1CC(=O)N[C@@H](C)C(=O)N(C)[C@@H](CC(C)C)C(=O)N(C)[C@@H](Cc2cccc(Cl)c2)C(=O)N[C@@H](C(C)C)C(=O)N(C)[C@@H](CC(C)C)C(=O)N(C)[C@@H](CC(C)C)C(=O)N[C@@H]([C@@H](C)O)C(=O)N[C@@H](Cc2ccccc2)C(=O)N1)C(C)C)C(=O)N1CCCCC1 [DP-936] (A[NMeL][NMePhe(3-Cl)]V[NMeL][NMeL]TFD[NMeA]VP[NMeL]I-Piperidide; lactam N-9) |  |  | 0.11 | 29
CC[C@H](C)[C@H](NC(=O)[C@H](CC(C)C)NC(=O)[C@H](CC(C)C)N(C)C(=O)[C@@H](NC(=O)[C@@H]1CCCN1C(=O)[C@@H]1CC(=O)N(C)CCC(=O)N[C@@H](CC(C)C)C(=O)N(C)[C@@H](CC(C)C)C(=O)N[C@@H]([C@@H](C)O)C(=O)N(C)[C@@H](C)C(=O)N[C@@H]([C@@H](C)CC)C(=O)N(C)[C@@H](CC(C)C)C(=O)N(C)[C@@H](CC(C)C)C(=O)N1)[C@@H](C)CC)C(=O)N1CCCCC1 [DP-937] ([NMeβAla]L[NMeL]T[NMeA]I[NMeL][NMeL]DPI[NMeL]LI-Piperidide; lactam N-9) |  |  | 0.47 | 164
CC[C@H](C)[C@H](NC(=O)[C@H](Cc1ccccc1)N(C)C(=O)[C@@H](NC(=O)[C@H](C)NC(=O)[C@H](CC(C)C)N(C)C(=O)[C@@H]1CC(=O)N(C)[C@@H](C)C(=O)N(C)[C@@H](CC(C)C)C(=O)N(C)[C@@H](Cc2ccccc2)C(=O)N[C@@H]([C@@H](C)O)C(=O)N(C)[C@@H](CC(C)C)C(=O)N(C)[C@@H](CC(C)C)C(=O)N[C@@H]([C@@H](C)CC)C(=O)N(C)[C@@H](CC(C)C)C(=O)N1)C(C)C)C(=O)N1CCCCC1 [DP-938] ([NMeA][NMeL][NMeF]T[NMeL][NMeL]I[NMeL]D[NMeL]AV[NMeF]I-Piperidide; lactam N-9) |  |  | 0.1 | 8
CC[C@H](C)[C@H](NC(=O)[C@H](CC(C)C)N(C)C(=O)CN(C)C(=O)[C@@H](NC(=O)[C@@H]1CC(=O)N[C@H](C(C)C)C(=O)N[C@@H](C)C(=O)N[C@@H]([C@@H](C)O)C(=O)N(C)[C@@H](C)C(=O)N[C@@H](Cc2ccccc2)C(=O)N(C)[C@@H](CC(C)C)C(=O)N(C)[C@@H](Cc2ccccc2)C(=O)N(C)[C@@H](CC(C)C)C(=O)N1)C(C)C)C(=O)N1CCCCC1 [DP-939] ([dV]AT[NMeA]F[NMeL][NMeF][NMeL]DV[Sar][NMeL]I-Piperidide; lactam N-9) |  |  | 3.6 | 8
CC[C@H](C)[C@H](NC(=O)[C@@H](NC(=O)[C@H](CC(C)C)N(C)C(=O)[C@@H](NC(=O)[C@@H]1CC(=O)N(C)[C@@H](C)C(=O)N[C@@H](CC(C)C)C(=O)N(C)[C@@H](Cc2ccccc2)C(=O)N[C@@H](CC(C)C)C(=O)N(C)CC(=O)N(C)[C@@H](CC(C)C)C(=O)N[C@@H]([C@@H](C)CC)C(=O)N(C)[C@@H](CC(C)C)C(=O)N1)[C@@H](C)O)C(C)C)C(=O)N1CCCCC1 [DP-940] ([NMeA]L[NMeF]L[Sar][NMeL]I[NMeL]DT[NMeL]VI-Piperidide; lactam N-9) |  |  | 0.14 | 37
CC[C@H](C)[C@H](NC(=O)[C@H](CC(C)C)N(C)C(=O)[C@@H](NC(=O)[C@H](Cc1ccccc1)N(C)C(=O)[C@@H]1CC(=O)N(C)CCC(=O)N(C)[C@@H](Cc2cccc(Cl)c2)C(=O)N[C@@H](CC(C)C)C(=O)N[C@@H]([C@@H](C)O)C(=O)N[C@@H](CC(C)C)C(=O)N[C@@H]([C@@H](C)CC)C(=O)N(C)[C@@H](CC(C)C)C(=O)N(C)[C@@H](CC(C)C)C(=O)N1)[C@@H](C)CC)C(=O)N1CCCCC1 [DP-941] ([NMeβAla][NMePhe(3-Cl)]LTLI[NMeL][NMeL]D[NMeF]I[NMeL]I-Piperidide; lactam N-9) |  |  | 0.1 | 49
CC[C@H](C)[C@H](NC(=O)[C@H](C)N(C)C(=O)[C@@H]1CCCN1C(=O)[C@@H](NC(=O)[C@@H]1CC(=O)N(C)[C@H](C)C(=O)N(C)[C@@H](CC(C)C)C(=O)N(C)[C@@H](Cc2ccccc2)C(=O)N[C@@H](CC(C)C)C(=O)N(C)[C@@H](Cc2cccc(Cl)c2)C(=O)N[C@@H]([C@@H](C)O)C(=O)N(C)[C@@H](Cc2ccccc2)C(=O)N[C@@H](CC(C)C)C(=O)N1)[C@@H](C)CC)C(=O)N1CCCCC1 [DP-942] ([dNMeA][NMeL][NMeF]L[NMePhe(3-Cl)]T[NMeF]LDIP[NMeA]I-Piperidide; lactam N-9) |  |  | 0.1 | 23
CC[C@H](C)[C@H](NC(=O)[C@H](C)N(C)C(=O)[C@H](CC(C)C)N(C)C(=O)[C@@H](NC(=O)[C@@H]1CC(=O)N(C)[C@@H](C)C(=O)N[C@@H]([C@@H](C)O)C(=O)N(C)[C@@H](Cc2ccccc2)C(=O)N[C@@H](C(C)C)C(=O)N2CCC[C@H]2C(=O)N(C)[C@@H](Cc2ccccc2)C(=O)N[C@@H](CC(C)C)C(=O)N(C)[C@@H](Cc2ccccc2)C(=O)N1)C(C)C)C(=O)N1CCCCC1 [DP-943] ([NMeA]T[NMeF]VP[NMeF]L[NMeF]DV[NMeL][NMeA]I-Piperidide; lactam N-9) | 0.1 | 7 |  | 
CC[C@H](C)[C@H](NC(=O)[C@H](CC(C)C)N(C)C(=O)[C@H](CC(C)C)NC(=O)[C@H](C)N(C)C(=O)[C@@H]1CC(=O)N[C@H](C(C)C)C(=O)N(C)[C@@H](CC(C)C)C(=O)N(C)[C@@H](CC(C)C)C(=O)N[C@@H](C)C(=O)N[C@@H](Cc2ccccc2)C(=O)N[C@@H]([C@@H](C)O)C(=O)N[C@@H](CC(C)C)C(=O)N(C)[C@@H](Cc2ccccc2)C(=O)N(C)[C@@H](CC(C)C)C(=O)N1)C(=O)N1CCCCC1 [DP-944] ([dV][NMeL][NMeL]AFTL[NMeF][NMeL]D[NMeA]L[NMeL]I-Piperidide; lactam N-10) |  |  | 0.1 | 20
